Experiment [1] deals with T1, Bifunctional epoxide hydrolase 2 (Homo sapiens, UniProt P34913).
T1 sequence (P34913 whole entry): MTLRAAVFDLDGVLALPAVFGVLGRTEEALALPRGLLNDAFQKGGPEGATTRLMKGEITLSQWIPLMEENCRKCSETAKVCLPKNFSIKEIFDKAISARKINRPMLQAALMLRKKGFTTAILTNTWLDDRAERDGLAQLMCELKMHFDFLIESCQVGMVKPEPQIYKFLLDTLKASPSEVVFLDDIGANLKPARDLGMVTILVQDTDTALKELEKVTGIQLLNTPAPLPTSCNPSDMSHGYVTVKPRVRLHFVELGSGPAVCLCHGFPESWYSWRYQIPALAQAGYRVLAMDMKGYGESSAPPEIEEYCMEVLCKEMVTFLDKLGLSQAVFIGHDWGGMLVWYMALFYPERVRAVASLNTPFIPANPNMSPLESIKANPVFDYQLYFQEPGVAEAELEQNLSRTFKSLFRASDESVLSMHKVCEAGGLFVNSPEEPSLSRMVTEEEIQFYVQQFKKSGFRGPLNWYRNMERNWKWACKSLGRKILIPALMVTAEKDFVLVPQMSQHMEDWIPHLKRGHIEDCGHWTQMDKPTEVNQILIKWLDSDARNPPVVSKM
Briefly: Inhibition of recombinant human full length sEH (1 to 555 residues) expressed in Escherichia coli BL21 DE3 cells assessed as reduction in 6-methoxynaphthaldehyde formation using PHOME as substrate incubated for 45 mins followed by substrate addition and measured for 45 mins by fluorescence based assay.

For experiment [2], the target named is T2, Leukotriene A-4 hydrolase (Homo sapiens, UniProt P09960).
T2 sequence (P09960 whole entry): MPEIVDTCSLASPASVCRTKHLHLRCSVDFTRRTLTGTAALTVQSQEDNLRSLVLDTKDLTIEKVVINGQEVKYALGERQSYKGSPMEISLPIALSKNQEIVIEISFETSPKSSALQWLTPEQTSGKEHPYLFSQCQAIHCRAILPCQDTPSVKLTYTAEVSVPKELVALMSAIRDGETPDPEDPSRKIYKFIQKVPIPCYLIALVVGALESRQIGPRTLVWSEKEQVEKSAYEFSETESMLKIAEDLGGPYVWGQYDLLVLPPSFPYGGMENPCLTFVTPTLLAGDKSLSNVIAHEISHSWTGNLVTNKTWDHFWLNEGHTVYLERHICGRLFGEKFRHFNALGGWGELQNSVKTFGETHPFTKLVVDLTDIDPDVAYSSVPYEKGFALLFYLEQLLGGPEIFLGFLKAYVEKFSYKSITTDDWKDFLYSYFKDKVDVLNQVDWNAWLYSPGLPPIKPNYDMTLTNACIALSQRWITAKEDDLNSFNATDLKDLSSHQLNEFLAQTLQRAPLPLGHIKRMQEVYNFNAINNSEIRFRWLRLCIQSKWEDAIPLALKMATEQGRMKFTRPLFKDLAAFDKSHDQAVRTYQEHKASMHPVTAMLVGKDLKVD
Briefly: Inhibition of recombinant human full length C-terminal His6-tagged LTA4H expressed in Escherichia coli BL21 DE3 cells assessed as reduction in amino-4-methylcoumarin formation using L-arginine-7-amino-4-methylcoumarin as substrate incubated for 30 mins followed by substrate addition and measured for 30 mins by fluorescence based assay.

In experiment [3] the target is T3, Leukotriene A-4 hydrolase (Homo sapiens) (UniProt P09960).
T3 sequence (whole entry): T2 sequence (P09960 whole entry)
Briefly: Inhibition of recombinant human full length C-terminal His6-tagged LTA4H expressed in Escherichia coli BL21 DE3 cells assessed as reduction in amino-4-methylcoumarin formation using L-arginine-7-amino-4-methylcoumarin as substrate at 10 uM incubated for 30 mins followed by substrate addition and measured for 30 mins by fluorescence based assay relative to control.

For experiment [4], the target named is T4, Bifunctional epoxide hydrolase 2 (Homo sapiens) (UniProt P34913).
T4 sequence (whole entry): T1 sequence (P34913 whole entry)
Briefly: Inhibition of recombinant human full length sEH (1 to 555 residues) expressed in Escherichia coli BL21 DE3 cells assessed as reduction in 6-methoxynaphthaldehyde formation using PHOME as substrate at 10 uM incubated for 45 mins followed by substrate addition and measured for 45 mins by fluorescence based assay relative to control.

pIC50: −log10 of the molar value.

In the case of `O=C(CCc1ccc(OCc2ccccc2)cc1)NCCC1CCN(Cc2ccccc2)C1` (stereo not given), the pIC50 (usually the IC50 on a negative log10 scale, so that one unit is a factor of ten) was 4.55 in experiment [1] and 5.49 in experiment [2].

For the molecule `O=C(CCc1ccc(OCc2ccccc2)cc1)NCC1CCN(c2cccc(Br)c2)C1` (stereo not given), the negative logarithm of the IC50 (pIC50) in experiment [1] is 5.00. Besides, the inhibition (commonly the change of the read-out against control, counted positive when it falls) in experiment [3] was determined as 4%.

For the molecule `O=C(CCc1ccc(OCc2ccccc2)cc1)Nc1ccc(CCN2CCOCC2)cc1`, the negative-log IC50 (pIC50) in experiment [1] is 5.89. In addition, the inhibition in experiment [3] stood at 16%.

With `O=C(CCc1ccc(OCc2ccccc2)cc1)NCC1CCCN(CCc2ccccc2)C1` (stereo not given), the negative-log IC50 (pIC50) in experiment [1] was 4.82.

With `O=C(CCc1ccc(OCc2ccccc2)cc1)NCC1CCN(Cc2cccs2)CC1`, the negative-log IC50 (pIC50) in experiment [1] is 6.30.

`O=C(CCc1ccc(OCc2ccccc2)cc1)Nc1ccc(OCCN2CCCCCC2)cc1`: in experiment [1], the pIC50 is 4.80. Moreover, the inhibition in experiment [3] is 16%.

On to `O=C(CCc1ccc(OCc2ccccc2)cc1)Nc1ccc(S(=O)(=O)NCC(F)(F)F)cc1`, for which the inhibition was determined as 6% in experiment [4] and 9% in experiment [3].

Turning to `O=C(CCc1ccc(OCc2ccccc2)cc1)NCC1CCN(CCCc2ccccc2)CC1`, the inhibition in experiment [4] stood at 7%. Further, in experiment [2], the negative logarithm of the IC50 (pIC50) was 4.74.

Consider `CCOP(=O)(OCC)c1ccc(NC(=O)CCc2ccc(OCc3ccccc3)cc2)cc1`, for which the negative logarithm of the IC50 (pIC50) in experiment [1] was 5.33.
